Data reported in patent US20250032524A1, “BROAD SPECTRUM AMINOGLYCOSIDES AND USES THEREOF” (REVAGENIX, INC., priority 2022, published 2025).

Tests used:
Assay in all cases: MIC broth microdilution (CLSI)
Assay type in all cases: cell-based
C. freundii = settings: Citrobacter freundii, read-out: Activity (MIC)
In short: (§1)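 Organisms from overnight agar colonies were adjusted to 0.5 McFarland and tested in cation-adjusted Mueller-Hinton broth at a final 5×10^5 CFU/mL against 2-fold serial compound dilutions. Plates were incubated in ambient air at 35° C. for 18-24 hours; MIC was the lowest concentration preventing visible growth (OD 600 nm<0.05).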

K. aerogenes = settings: Klebsiella aerogenes; strain AEAE1042, MDR Clinical isolate (CDC CRE panel), CDC AR Bank 0161
In short: as §1

P. mirabilis = settings: Proteus mirabilis; strain APMI1048, MDR Clinical isolate (CDC CRE panel), CDC AR Bank 0159
In short: as §1

S. enterica = settings: Salmonella enterica, read-out: Activity (MIC)
In short: as §1

Measured: MIC

NCC[C@H](O)C(=O)N[C@@H]1[C@@H](O)[C@H](N)[C@@H](O[C@H]2O[C@H](CN)CC[C@H]2N)[C@H](O[C@@H]2O[C@H](CO)[C@@H](O[C@H]3O[C@@H](CN)[C@@H](O)[C@H](O)[C@H]3N)[C@H]2O)[C@H]1O [Compound 2, (S)-4-amino-N-((1R,2S,3S,4R,5R,6S)-3-amino-5-(((2S,3R,4S,5R)-4-(((2R,3R,4R,5S,6S)-3-amino-6-(aminomethyl)-4,5-dihydroxytetrahydro-2H-pyran-2-yl)oxy)-3-hydroxy-5-(hydroxymethyl)tetrahydrofuran-2-yl)oxy)-4-(((2R,3R,6S)-3-amino-6-(aminomethyl)tetrahydro-2H-pyran-2-yl)oxy)-2,6-dihydroxycyclohexyl)-2-hydroxybutanamide]
< 16 µg/mL: all assays above

NC[C@@H]1CC[C@@H](N)[C@@H](O[C@@H]2[C@@H](N)[C@H](O)[C@@H](NC(=O)[C@@H](O)[C@H](F)CN)[C@H](O)[C@H]2O[C@@H]2O[C@H](CO)[C@@H](O[C@H]3O[C@@H](CN)[C@@H](O)[C@H](O)[C@H]3N)[C@H]2O)O1 [Compound 1, (2R,3R)-4-amino-N-((1R,2S,3S,4R,5R,6S)-3-amino-5-(((2S,3R,4S,5R)-4-(((2R,3R,4R,5S,6S)-3-amino-6-(aminomethyl)-4,5-dihydroxytetrahydro-2H-pyran-2-yl)oxy)-3-hydroxy-5-(hydroxymethyl)tetrahydrofuran-2-yl)oxy)-4-(((2R,3R,6S)-3-amino-6-(aminomethyl)tetrahydro-2H-pyran-2-yl)oxy)-2,6-dihydroxycyclohexyl)-3-fluoro-2-hydroxybutanamide]
< 16 µg/mL: all assays above

C[C@H](N)[C@@H]1CC[C@@H](N)[C@@H](O[C@@H]2[C@@H](N)[C@H](O)[C@@H](NC(=O)[C@@H](O)[C@H](F)CN)[C@H](O)[C@H]2O[C@@H]2O[C@H](CO)[C@@H](O[C@H]3O[C@@H](CN)[C@@H](O)[C@H](O)[C@H]3N)[C@H]2O)O1 [Compound 3, (2R,3R)-4-amino-N-((1R,2S,3S,4R,5R,6S)-3-amino-4-(((2R,3R,6S)-3-amino-6-((S)-1-aminoethyl)tetrahydro-2H-pyran-2-yl)oxy)-5-(((2S,3R,4S,5R)-4-(((2R,3R,4R,5S,6S)-3-amino-6-(aminomethyl)-4,5-dihydroxytetrahydro-2H-pyran-2-yl)oxy)-3-hydroxy-5-(hydroxymethyl)tetrahydrofuran-2-yl)oxy)-2,6-dihydroxycyclohexyl)-3-fluoro-2-hydroxybutanamide]
< 16 µg/mL: all assays above

C[C@H](N)[C@@H]1CC[C@@H](N)[C@@H](O[C@@H]2[C@@H](N)[C@H](O)[C@@H](NC(=O)[C@@H](O)CCN)[C@H](O)[C@H]2O[C@@H]2O[C@H](CO)[C@@H](O[C@H]3O[C@@H](CN)[C@@H](O)[C@H](O)[C@H]3N)[C@H]2O)O1 [Compound 6, (S)-4-Amino-N-((1R,2S,3S,4R,5R,6S)-3-Amino-4-(((2R,3R,6S)-3-Amino-6-((S)-1-Aminoethyl)Tetrahydro-2H-Pyran-2-Yl)Oxy)-5-(((2S,3R,4S,5R)-4-(((2R,3R,4R,5S,6S)-3-Amino-6-(Aminomethyl)-4,5-Dihydroxytetrahydro-2H-Pyran-2-Yl)Oxy)-3-Hydroxy-5-(Hydroxymethyl)Tetrahydrofuran-2-Yl)Oxy)-2,6-Dihydroxycyclohexyl)-2-Hydroxybutanamide]
< 16 µg/mL: all assays above
